Among the data in patent US11608337B2, “Heterocyclic compounds as immunomodulators” (Incyte Corporation, priority 2016, dated 2023) are IC50 values, retold here.

As a reminder, the IC50 is the concentration that inhibits the measured activity by half.

The target of this experiment is PD-1/PD-L1 protein/protein interaction (Homo sapiens (Human), UniProt Q9NZQ7). Kind of experiment: PD-1/PD-L1 Homogeneous Time-Resolved Fluorescence (HTRF) Binding Assay. The settings on record: recombinant human PD-L1 (19-238) His-tag, human PD-1 (25-167) Fc tag; 25° C., PBS pH 7.4. Here is the method: Example A. PD-1/PD-L1 Homogeneous Time-Resolved Fluorescence (HTRF) Binding Assay
PD-1/PD-L1 protein/protein interaction, sequence (Q9NZQ7 19-238): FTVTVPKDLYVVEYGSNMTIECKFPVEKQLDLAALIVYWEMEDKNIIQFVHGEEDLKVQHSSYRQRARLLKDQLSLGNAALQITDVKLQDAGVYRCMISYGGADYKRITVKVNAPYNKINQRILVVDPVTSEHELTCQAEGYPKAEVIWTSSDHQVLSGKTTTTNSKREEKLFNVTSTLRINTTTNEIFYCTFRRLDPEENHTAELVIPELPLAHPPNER
The assays were conducted in a standard black 384-well polystyrene plate with a final volume of 20 μL. Inhibitors were first serially diluted in DMSO and then added to the plate wells before the addition of other reaction components. The final concentration of DMSO in the assay was 1%. The assays were carried out at 25° C. in the PBS buffer (pH 7.4) with 0.05% Tween-20 and 0.1% BSA. Recombinant human PD-L1 protein (19-238) with a His-tag at the C-terminus was purchased from AcroBiosystems (PD1-H5229). Recombinant human PD-1 protein (25-167) with Fc tag at the C-terminus was also purchased from AcroBiosystems (PD1-H5257). PD-L1 and PD-1 proteins were diluted in the assay buffer and 10 μL was added to the plate well. Plates were centrifuged and proteins were preincubated with inhibitors for 40 minutes. The incubation was followed by the addition of 10 μL of HTRF detection buffer supplemented with Europium cryptate-labeled anti-human IgG (PerkinElmer-AD0212) specific for Fc and anti-His antibody conjugated to SureLight®-Allophycocyanin (APC, PerkinElmer-AD0059H). After centrifugation, the plate was incubated at 25° C. for 60 min. before reading on a PHERAstar FS plate reader (665 nm/620 nm ratio). Final concentrations in the assay were […], 10 nM PD-L1, 1 nM europium anti-human IgG and 20 nM anti-His-Allophycocyanin. IC50 determination was performed by fitting the curve of percent control activity versus the log of the inhibitor concentration using the GraphPad Prism 5.0 software.
Data obtained for the Example compounds using the PD-1/PD-L homogenous time-resolved fluorescence (HTRF) binding assay described in Example A is provided in Table 1.
For orientation: Time-resolved FRET reads energy transfer from a long-lived donor to a nearby acceptor.
As for `Cc1c(-c2ccccc2)cccc1-c1nc2c([nH]1)CCNC2` [Example 21, 2-(2-methylbiphenyl-3-yl)-4,5,6,7-tetrahydro-1H-imidazo[4,5-c]pyridine], the IC50 fell in the range of 500 to 10000 nM. The value for `Cc1c(-c2nc3c(s2)CNCC3)ccnc1-c1ccc2c(c1)OCCO2` [Example 26, 2-[2-(2,3-dihydro-1,4-benzodioxin-6-yl)-3-methylpyridin-4-yl]-4,5,6,7-tetrahydro[1,3]thiazolo[5,4-c]pyridine] was 500 to 10000 nM; that for `Cc1c(C2=CCOCC2)cccc1-c1nc2c(s1)CNCC2` [Example 29, 2-[3-(3,6-dihydro-2H-pyran-4-yl)-2-methylphenyl]-4,5,6,7-tetrahydro[1,3]thiazolo[5,4-c]pyridine] was 500 to 10000 nM; that for `Cc1c(-c2cccc(OCCO)c2)cccc1-c1nc2c(s1)CNCC2` [Example 36, 2-{[2′-methyl-3′-(4,5,6,7-tetrahydro[1,3]thiazolo[5,4-c]pyridin-2-yl)biphenyl-3-yl]oxy}ethanol] was 100 to 500 nM. Take `Cc1c(-c2ccccc2)ccnc1-c1nc2c(s1)CNCC2` [Example 14, 2-(3-methyl-4-phenylpyridin-2-yl)-4,5,6,7-tetrahydro[1,3]thiazolo[5,4-c]pyridine]: the half-inhibitory concentration (IC50) was at most 100 nM. In the case of `Cc1c(-c2ccccc2)cccc1-c1nc2c(s1)CN(C)CC2` [Example 3, 5-methyl-2-(2-methylbiphenyl-3-yl)-4,5,6,7-tetrahydro[1,3]thiazolo[5,4-c]pyridine] it was at most 100 nM; in that of `Cc1c(-c2ccccc2)cccc1-c1nc2c(s1)CNCC2(C)C` [Example 19, 7,7-dimethyl-2-(2-methylbiphenyl-3-yl)-4,5,6,7-tetrahydro[1,3]thiazolo[5,4-c]pyridine], 500 to 10000 nM.

On to `Cc1c(-c2ccccc2)cccc1-n1cc2c(n1)CNCC2` [Example 18, 2-(2-methylbiphenyl-3-yl)-4,5,6,7-tetrahydro-2H-pyrazolo[3,4-c]pyridine], for which the IC50 is at most 100 nM. The value for `Cc1c(-c2ccccc2)cccc1-c1nc2c(s1)CN(C[C@@H]1C[C@H]1C(=O)O)CC2` (relative stereo) [Example 9, Trans-2-{[2-(2-methylbiphenyl-3-yl)-6,7-dihydro[1,3]thiazolo[5,4-c]pyridin-5(4H)-yl]methyl}cyclopropanecarboxylic acid] was 100 to 500 nM. The value for `COc1cc(-c2cccc(-c3nc4c(s3)CNCC4)c2C)ccn1` [Example 30, 2-[3-(2-methoxypyridin-4-yl)-2-methylphenyl]-4,5,6,7-tetrahydro[1,3]thiazolo[5,4-c]pyridine] was 100 to 500 nM; that for `COc1cc(OC)c(F)c(-c2cccc(-c3nc4c(s3)CNCC4)c2C)c1F` [Example 37, 2-(2′,6′-difluoro-3′,5′-dimethoxy-2-methylbiphenyl-3-yl)-4,5,6,7-tetrahydro[1,3]thiazolo[5,4-c]pyridine] was at most 100 nM.

Turning to `Cc1c(-c2ccc3c(c2)OCCO3)ccnc1-c1nc2c(s1)CNCC2` [Example 16, 2-[4-(2,3-dihydro-1,4-benzodioxin-6-yl)-3-methylpyridin-2-yl]-4,5,6,7-tetrahydro[1,3]thiazolo[5,4-c]pyridine], the 50% inhibitory concentration (IC50) was at most 100 nM. The value for `Cc1c(-c2ccccc2)cccc1-c1nc2c(s1)CN(C1CCC(C(=O)O)CC1)CC2` (centres unmarked) [Example 7, 4-[2-(2-methylbiphenyl-3-yl)-6,7-dihydro[1,3]thiazolo[5,4-c]pyridin-5(4H)-yl]cyclohexanecarboxylic acid] was at most 100 nM; that for `CCOc1cccc(-c2cccc(-c3nc4c(s3)CNCC4)c2C)c1` [Example 33, 2-(3′-ethoxy-2-methylbiphenyl-3-yl)-4,5,6,7-tetrahydro[1,3]thiazolo[5,4-c]pyridine] was at most 100 nM. The value for `COc1cc(OC)cc(-c2cccc(-c3nc4c(s3)CNCC4)c2C)c1` [Example 34, 2-(3′,5′-dimethoxy-2-methylbiphenyl-3-yl)-4,5,6,7-tetrahydro[1,3]thiazolo[5,4-c]pyridine] was at most 100 nM; that for `Cc1c(-c2ccccc2)cccc1-c1nc2c(s1)CN(CCCC(=O)O)CC2` [Example 8, 4-[2-(2-methylbiphenyl-3-yl)-6,7-dihydro[1,3]thiazolo[5,4-c]pyridin-5(4H)-yl]butanoic acid] was at most 100 nM. In the case of `Cc1c(-c2ccccc2)cccc1-n1cc2c(n1)CCNC2` [Example 17, 2-(2-methylbiphenyl-3-yl)-4,5,6,7-tetrahydro-2H-pyrazolo[4,3-c]pyridine] it was 100 to 500 nM. As for `Cc1c(-c2ccccc2)cccc1-c1nc2c(o1)CCNC2` [Example 23, 2-(2-methylbiphenyl-3-yl)-4,5,6,7-tetrahydro[1,3]oxazolo[4,5-c]pyridine], the half-inhibitory concentration (IC50) was at most 100 nM. In the case of `N#Cc1c(-c2ccc3c(c2)OCCO3)cccc1-c1nc2c(s1)CNCC2` [Example 13, 2-(2,3-dihydro-1,4-benzodioxin-6-yl)-6-(4,5,6,7-tetrahydro[1,3]thiazolo[5,4-c]pyridin-2-yl)benzonitrile], the half-inhibitory concentration (IC50) is at most 100 nM. The value for `Cc1c(-c2ccccc2)cccc1-c1cn2c(n1)CNCC2` [Example 20, 2-(2-methylbiphenyl-3-yl)-5,6,7,8-tetrahydroimidazo[1,2-a]pyrazine] was 500 to 10000 nM; that for `Cc1c(-c2cccc(C(N)=O)c2)cccc1-c1nc2c(s1)CNCC2` [Example 38, 2′-methyl-3′-(4,5,6,7-tetrahydro[1,3]thiazolo[5,4-c]pyridin-2-yl)biphenyl-3-carboxamide] was at most 100 nM; that for `Cc1c(-c2ccccc2)cccc1-c1nc2c(s1)CN(Cc1cn[nH]c1)CC2` [Example 10, 2-(2-methylbiphenyl-3-yl)-5-(1H-pyrazol-4-ylmethyl)-4,5,6,7-tetrahydro[1,3]thiazolo[5,4-c]pyridine] was 100 to 500 nM. The value for `Cc1c(-c2ccsc2)cccc1-c1nc2c(s1)CNCC2` [Example 27, 2-[2-methyl-3-(3-thienyl)phenyl]-4,5,6,7-tetrahydro[1,3]thiazolo[5,4-c]pyridine] was 100 to 500 nM; that for `Cc1c(-c2ccc(F)cn2)cccc1-c1nc2c(s1)CNCC2` [Example 31, 2-[3-(5-fluoropyridin-2-yl)-2-methylphenyl]-4,5,6,7-tetrahydro[1,3]thiazolo[5,4-c]pyridine] was 500 to 10000 nM; that for `Cc1c(-c2ccccc2)cccc1-c1nc2c(o1)CNCC2` [Example 22, 2-(2-methylbiphenyl-3-yl)-4,5,6,7-tetrahydro[1,3]oxazolo[5,4-c]pyridine] was at most 100 nM. The value for `Cc1c(-c2ccccc2)cccc1-c1nc2c(o1)CCN(C)C2` [Example 24, 5-methyl-2-(2-methylbiphenyl-3-yl)-4,5,6,7-tetrahydro[1,3]oxazolo[4,5-c]pyridine] was at most 100 nM. Take `Cc1c(-c2ccccc2)cccc1-c1nc2c(s1)CCNC2` [Example 1, 2-(2-methylbiphenyl-3-yl)-4,5,6,7-tetrahydro[1,3]thiazolo[4,5-c]pyridine]: the half-inhibitory concentration (IC50) was in the range of 500 to 10000 nM.

Turning to `COc1cccc(-c2cccc(-c3nc4c(s3)CNCC4)c2C)c1` [Example 28, 2-(3′-methoxy-2-methylbiphenyl-3-yl)-4,5,6,7-tetrahydro[1,3]thiazolo[5,4-c]pyridine], the IC50 is at most 100 nM. In the case of `Cc1c(-c2ccccc2)cccc1-c1nc2n(n1)CCNC2` [Example 25, 2-(2-methylbiphenyl-3-yl)-5,6,7,8-tetrahydro[1,2,4]triazolo[1,5-a]pyrazine] it was 100 to 500 nM. Turning to `Cc1c(-c2ccccc2)cccc1-c1cc2n(n1)CCNC2` [Example 12, 2-(2-methylbiphenyl-3-yl)-4,5,6,7-tetrahydropyrazolo[1,5-a]pyrazine], the half-maximal inhibitory concentration (IC50) lay in the range of 100 to 500 nM. Take `Cc1c(-c2cccc(CC(N)=O)c2)cccc1-c1nc2c(s1)CNCC2` [Example 39, 2-[2′-methyl-3′-(4,5,6,7-tetrahydro[1,3]thiazolo[5,4-c]pyridin-2-yl)biphenyl-3-yl]acetamide]: the IC50 was at most 100 nM.

`Cc1c(-c2ccccc2)cccc1-c1nc2c(s1)CN(C[C@H](C)O)CC2` [Example 5, (2S)-1-[2-(2-methylbiphenyl-3-yl)-6,7-dihydro[1,3]thiazolo[5,4-c]pyridin-5(4H)-yl]propan-2-ol]: the IC50 was at most 100 nM. The value for `Cc1c(C2=CCCCC2)cccc1-c1nc2c(s1)CNCC2` [Example 32, 2-(3-cyclohex-1-en-1-yl-2-methylphenyl)-4,5,6,7-tetrahydro[1,3]thiazolo[5,4-c]pyridine] was at most 100 nM; that for `COc1cccc(-c2ccnc(-c3nc4c(s3)CNCC4)c2C)c1` [Example 15, 2-[4-(3-methoxyphenyl)-3-methylpyridin-2-yl]-4,5,6,7-tetrahydro[1,3]thiazolo[5,4-c]pyridine] was at most 100 nM; that for `N#Cc1c(-c2ccc3c(c2)OCCO3)ccnc1-c1nc2c(s1)CNCC2` [Example 35, 4-(2,3-dihydro-1,4-benzodioxin-6-yl)-2-(4,5,6,7-tetrahydro[1,3]thiazolo[5,4-c]pyridin-2-yl)nicotinonitrile] was 100 to 500 nM.
